This passage reports GI50 and TGI results from PubChem BioAssay (NCI).

“And” between values parts separate entries of the source, which are not always exact repeats. Equal entries are not always repeated.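 Exposure lasted 48 hours, with cells grown in 96-well plates and compounds tested at five concentrations. At the GI50, growth is halved. TGI marks complete inhibition of growth.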 Where only a bound is given, the exact number is not on record here.

Some test systems named below: SK-OV-3 ovarian; MDA-MB-231 breast; RXF 393 renal; HOP-92 NSCLC; PC-3 prostate; OVCAR-4 ovarian; SF-268 CNS; HL-60(TB) leukemia; SK-MEL-5 melanoma; NCI-H226 lung.
Common to all, as to test: NCI tumour cell line growth inhibition, 48 h

For the compound `CCN(Cc1ccc(F)cc1)c1ccc(CO)c(C(F)(F)F)c1`, the GI50 in the assay with SK-OV-3 ovarian was 15.8 µM; with MDA-MB-231 breast, 14.3 µM; with RXF 393 renal it was 14.9 µM; with HOP-92 NSCLC, 2.29 µM; in the assay on PC-3 prostate it was 12.1 µM; in the assay with OVCAR-4 ovarian, 1.79 µM. Besides, the GI50 was 15.5 µM with SF-268 CNS, 15.8 µM in the assay on HL-60(TB) leukemia and 13.9 µM with SK-MEL-5 melanoma. The TGI was found to be 30.8 µM in the assay with SK-OV-3 ovarian; 27.3 µM in the assay on MDA-MB-231 breast; 28.3 µM in the assay with RXF 393 renal; 17.8 µM with HOP-92 NSCLC; 25.7 µM with PC-3 prostate; 12.8 µM in the assay on OVCAR-4 ovarian. For the same compound, the TGI turned out to be 31.3 µM with SF-268 CNS, 41.9 µM with HL-60(TB) leukemia and 26.8 µM in the assay with SK-MEL-5 melanoma.
With `COc1c(CC=C(C)C)c(O)c(C(CC(C)C)c2c(O)c(CC=C(C)C)c(O)c(C(C)=O)c2O)c(O)c1C(C)=O` (stereo not drawn), the TGI in the assay on SK-OV-3 ovarian worked out at 11.1 µM; in the assay with MDA-MB-231 breast, 7.66 µM; in the assay with RXF 393 renal, 11.1 µM; in the assay with HOP-92 NSCLC it was 0.562 µM; with PC-3 prostate, 10.3 µM; with OVCAR-4 ovarian it was 14.4 µM. For the same compound, the TGI in the assay with SF-268 CNS is 8.12 µM; in the assay with HL-60(TB) leukemia it was 3.28 µM; in the assay with NCI-H226 lung, 10.6 µM; in the assay on SK-MEL-5 melanoma it was 5.04 µM.
Turning to `O=S(=O)(NCCCNc1cc(-c2cn(-c3ccccc3)nc2-c2cccc(O)c2)ccn1)c1ccc(F)cc1`, the GI50 in the assay with SK-OV-3 ovarian is 4.44 µM; in the assay with MDA-MB-231 breast it was 2.48 µM; in the assay on RXF 393 renal it was 3.21 µM; in the assay with HOP-92 NSCLC, 2.66 µM; in the assay with PC-3 prostate, 3.11 µM; in the assay on OVCAR-4 ovarian, 3.82 µM. The GI50 is 3.65 µM in the assay with SF-268 CNS, 2.2 µM in the assay on HL-60(TB) leukemia, 4.49 µM in the assay with NCI-H226 lung and 3.06 µM in the assay on SK-MEL-5 melanoma. The TGI in the assay on SK-OV-3 ovarian turned out to be 23.5 µM; in the assay with MDA-MB-231 breast, 7.19 µM; in the assay with RXF 393 renal, 14.6 µM; with HOP-92 NSCLC, 7.62 µM; in the assay with PC-3 prostate it was 8.5 µM; in the assay on OVCAR-4 ovarian, 48.9 µM. In addition, the TGI with SF-268 CNS stood at 22.9 µM; with HL-60(TB) leukemia, 5.85 µM; in the assay on NCI-H226 lung, 21.6 µM; in the assay on SK-MEL-5 melanoma, 10.1 µM.
For the compound `CC(C)N(Cc1ccc(F)cc1)c1ccc(CO)c(Cl)c1`, the GI50 in the assay on SK-OV-3 ovarian is 4.83 µM; in the assay with MDA-MB-231 breast, 12.4 µM; with RXF 393 renal, 2.51 µM; in the assay with HOP-92 NSCLC, 0.205 µM; with PC-3 prostate, 11.4 µM; in the assay on OVCAR-4 ovarian, 0.116 µM. The GI50 in the assay on SF-268 CNS was 13.1 µM; with HL-60(TB) leukemia it was 3.15 µM; in the assay on NCI-H226 lung, 0.054 µM; in the assay with SK-MEL-5 melanoma, 8.67 µM. The TGI in the assay on SK-OV-3 ovarian was 17.9 µM; in the assay on MDA-MB-231 breast it was 25.6 µM; in the assay on RXF 393 renal it was 19.6 µM; in the assay with HOP-92 NSCLC, 4.22 µM; with PC-3 prostate, 24.2 µM; in the assay on OVCAR-4 ovarian it was 1.7 µM. Moreover, the TGI in the assay with SF-268 CNS turned out to be 26.4 µM; in the assay on HL-60(TB) leukemia, 21.8 µM; in the assay on NCI-H226 lung, 0.179 µM; in the assay on SK-MEL-5 melanoma it was 21.8 µM.
For the compound `NCc1ccc(-c2nc(-c3ccc(Cl)c(O)c3)c(-c3ccncc3)[nH]2)cc1`, the GI50 was more than 25 µM in the assay on SK-OV-3 ovarian; 11.7 µM with MDA-MB-231 breast; more than 19.2 µM with RXF 393 renal; 2.1 µM with HOP-92 NSCLC; more than 25 µM with PC-3 prostate; more than 25 µM in the assay on OVCAR-4 ovarian. Besides, the GI50 with SF-268 CNS was more than 25 µM; in the assay with HL-60(TB) leukemia, 15.2 µM; with NCI-H226 lung, more than 25 µM; in the assay on SK-MEL-5 melanoma, more than 15.4 µM. Moreover, the TGI in the assay on SK-OV-3 ovarian is more than 25 µM; in the assay on MDA-MB-231 breast, more than 25 µM; with RXF 393 renal, more than 25 µM; with HOP-92 NSCLC it was 19.6 µM; in the assay on PC-3 prostate, more than 25 µM; with OVCAR-4 ovarian it was more than 25 µM. Besides, the TGI in the assay on SF-268 CNS, in the assay with HL-60(TB) leukemia, in the assay with NCI-H226 lung and with SK-MEL-5 melanoma was more than 25 µM throughout.
Regarding `C/C(=N\NC(=S)N1CCN(c2ccccn2)CC1)c1ncccn1`, the GI50 with SK-OV-3 ovarian was 0.0884 µM; in the assay with RXF 393 renal it was 1.05 µM; with HOP-92 NSCLC, 0.208 µM; with PC-3 prostate, 0.0298 µM; with OVCAR-4 ovarian, 2.44 µM; in the assay with SF-268 CNS it was 0.791 µM. Further, the GI50 in the assay on NCI-H226 lung was 1.71 µM; in the assay on SK-MEL-5 melanoma, 0.269 µM. In addition, the TGI was 4.47 µM and 13 µM in the assay with SK-OV-3 ovarian; 19.4 µM with MDA-MB-231 breast; 4.51 µM and 15.5 µM in the assay on RXF 393 renal; 5.91 µM and 3.08 µM with HOP-92 NSCLC; 15.9 µM with PC-3 prostate; 4.26 µM and 21.2 µM with OVCAR-4 ovarian. The TGI in the assay with SF-268 CNS was 1.47 µM and 14.6 µM; in the assay on HL-60(TB) leukemia, 0.0274 µM and 0.103 µM; in the assay on NCI-H226 lung, 5.78 µM and 11 µM; in the assay with SK-MEL-5 melanoma it was 3.2 µM and 14.9 µM.
Take `COc1ccc(C2CC(c3ccc(N(C)C)cc3)=NN2c2ccc(S(N)(=O)=O)cc2)cc1` (stereo not drawn): the GI50 is 4.38 µM in the assay with SK-OV-3 ovarian; 4.73 µM with MDA-MB-231 breast; 2.56 µM with RXF 393 renal; 3.65 µM with PC-3 prostate; 3.19 µM with OVCAR-4 ovarian; 5.76 µM in the assay on SF-268 CNS. For the same compound, the GI50 in the assay on HL-60(TB) leukemia is 3.99 µM; in the assay on NCI-H226 lung, 2.54 µM; with SK-MEL-5 melanoma, 1.73 µM. Further, the TGI in the assay with SK-OV-3 ovarian is more than 100 µM; in the assay with MDA-MB-231 breast, 60.3 µM; in the assay with RXF 393 renal, 7.52 µM; with PC-3 prostate it was more than 100 µM; in the assay with OVCAR-4 ovarian it was more than 100 µM; with SF-268 CNS, more than 100 µM. Moreover, the TGI in the assay on HL-60(TB) leukemia turned out to be 86.3 µM; with NCI-H226 lung, 8.09 µM; with SK-MEL-5 melanoma it was 3.37 µM.
In the case of `N#CC1C(N)=NNC12Nc1ccccc1S2` (stereo not drawn), the GI50 is 25.9 µM in the assay with SK-OV-3 ovarian; 3.59 µM in the assay with MDA-MB-231 breast; 34.7 µM in the assay on HOP-92 NSCLC; 14.1 µM with PC-3 prostate; 62.9 µM in the assay on SF-268 CNS; 42.5 µM with HL-60(TB) leukemia. The GI50 with SK-MEL-5 melanoma was 8.93 µM. Besides, the TGI in the assay with SK-OV-3 ovarian is more than 100 µM; with MDA-MB-231 breast, 16.6 µM; with HOP-92 NSCLC, more than 100 µM; with PC-3 prostate it was more than 100 µM; in the assay with SF-268 CNS it was more than 100 µM; in the assay on HL-60(TB) leukemia it was more than 100 µM. This compound displayed a TGI in the assay with SK-MEL-5 melanoma of 28.7 µM.
